Source: patent US20250026725A1, “HYDRATE CRYSTAL OF 5-CHLORO-4-(3-CHLORO-4- METHYLPHENYL)-1H-IMIDAZOLE-2-CARBONITRILE” (ISHIHARA SANGYO KAISHA, LTD., priority 2021, published 2025)
Converted amounts (≈) assume the structure as drawn. Like-named read-outs stand apart in the source and are kept apart here.

Experiments:
[1] = tested on: Microsporum canis (IFM63627); assay: Antifungal activity test, minimum inhibitory concentration (MIC100); format: cell-based; conditions: Sabouraud medium, 32° C. for 72 hours
Method: Microsporum canis was cultured on a 1/10 Sabouraud medium at 32° C. for 168 hours to form spores. Then, 10 mL of physiological saline solution (OTSUKA NORMAL SALINE; containing the equivalent of 9 g of sodium chloride in 1000 mL) was directly added over the medium, and the surface was scraped with a disposable loop (Type 1 (1 μL) to collect a spore suspension containing mycelia. The spore suspension containing mycelia was filtered through a cell strainer (+40 μm). Spores were collected from a filtrate by centrifugation (3500 rpm, 5 minutes), and washed twice with physiological saline to prepare a spore suspension (1×10^7 cells/mL). 10 μL of the spore suspension was inoculated into a Sabouraud medium to which the compound under test dissolved in DMSO was added so as to have a predetermined concentration. Microsporum canis was cultured at 32° C. for 72 hours, and then the presence or absence of the development of colonies was examined to determine a minimum inhibitory concentration (MIC100).
A minimum inhibitory concentration (MIC100) for Microsporum canis (IFM63627) was determined in the same method as in Test Example 7 except that the hydrate crystal (Production Example 2) was used as the compound under test.

[2] = tested on: Trichophyton rubrum (ATCCMYA4607); assay: as above; format: cell-based; conditions: Sabouraud medium, 32° C. for 72 hours
Method: Trichophyton rubrum was cultured on a Sabouraud medium at 32° C. for 168 hours to form spores. Mycelia were peeled from a medium surface and collected into a tube, physiological saline solution (OTSUKA NORMAL SALINE; containing the equivalent of 9 g of sodium chloride in 1000 mL) was added thereto, and the entire mixture was mixed and dispersed with a disposable loop (Type 1 (1 μL)) to collect a spore suspension containing mycelia. The spore suspension containing mycelia was filtered through a cell strainer (+40 μm). Spores were collected from a filtrate by centrifugation (3500 rpm, 5 minutes), and washed twice with physiological saline to prepare a spore suspension (1×10^6 cells/mL). 10 μL of the spore suspension was inoculated into the Sabouraud medium to which the test compound dissolved in DMSO was added so as to have a predetermined concentration. Trichophyton rubrum was cultured at 32° C. for 72 hours, and then the presence or absence of the development of colonies was examined to determine a minimum inhibitory concentration (MIC100).
A minimum inhibitory concentration (MIC100) for Trichophyton rubrum (ATCCMYA4607) was determined in the same method as in Test Example 12 except that the hydrate crystal (Production Example 2) was used as the compound under test.

[3] = tested on: Trichophyton rubrum (ATCCMYA4607); assay: Antifungal activity test, minimum fungicidal concentration (MFC100) on spores by treatment time; format: cell-based; conditions: read-out: Minimal fungicidal concentration (MFC100)
Method: Trichophyton rubrum was cultured on a Sabouraud medium at 32° C. for 168 hours to form spores. Mycelia were peeled from a medium surface and collected into a tube, physiological saline solution (OTSUKA NORMAL SALINE; containing the equivalent of 9 g of sodium chloride in 1000 mL) was added thereto, and the entire mixture was mixed and dispersed with a disposable loop (Type 1 (1 μL)) to collect a spore suspension containing mycelia. The spore suspension containing mycelia was filtered through a cell strainer (+40 μm). Spores were collected from a filtrate by centrifugation (3500 rpm, 5 minutes), and washed twice with physiological saline to prepare a spore suspension (1×10^7 cells/mL). 10 μL of the spore suspension was inoculated into 90 μL of physiological saline solution to which the test compound dissolved in DMSO was added so as to have a predetermined concentration. Every time a predetermined time lapsed, 10 μL of a test solution containing spores was taken out. Spores were collected from the test solution thus taken out by centrifugation (3500 rpm, 5 minutes), and washed twice with physiological saline to prepare 10 μL of spore suspension. 10 μL of spore suspension was spotted on the Sabouraud medium and cultured at 32° C. for 72 hours, and then the presence or absence of the development of colonies was examined to determine a minimum fungicidal concentration (MFC100).
A minimum inhibitory concentration (MIC100) for Trichophyton rubrum (ATCCMYA4607) was determined in the same method as in Test Example 13 except that the hydrate crystal (Production Example 2) was used as the compound under test.

[4] = Karl Fischer moisture content measurement (volumetric titration method); format: physicochemical; conditions: atmosphere of 25° C., as obtained
Method: The moisture content rates of the hydrate crystals obtained in Production Examples 1 and 2, and the anhydrous crystals used as a raw material in Production Example 1 were measured with a Karl Fischer moisture meter (CA-310, manufactured by Nittoseiko Analytech Co., Ltd.). The test was conducted in conformance with the description in The Japanese Pharmacopoeia, 18th Edition, “2.48 Water Determination (Karl Fischer Method)”, Volumetric titration. The measurement was performed in an atmosphere of 25° C., with the conditions set to a forced delay time of 2 minutes after sample administration, a minimum amount to be titrated of 2 μL, and an end point voltage of 140 mV. More specifically, it was as follows. First, into a measuring flask, methanol for moisture measurement (Aquamicron Dehydrated Solvent GEX, manufactured by Mitsubishi Chemical Corporation) was loaded, and 30 mg of water was added thereto to titrate the mixture with a Karl Fischer reagent (Aquamicron SS-Z, manufactured by Mitsubishi Chemical Corporation). After titration, a titer (mg/mL) of the reagent was determined from the amount titrated. Next, about 0.1 g of a measurement sample was precisely weighed and added into the measuring flask to titrate the mixture with a Karl Fischer reagent. The moisture content (w/w %) in the sample was calculated from the amount titrated and the previously determined titer.

[5] = Test of triboelectrification properties; format: physicochemical; conditions: 25° C. and 50% RH
Method: First, the sample was loaded into a levelled stainless steel petri dish having φ50 mm×a height of 15 mm, and then it was statically eliminated with a static eliminator (STABLO AP, manufactured by SHIMADZU CORPORATION). The surface potential of the sample was measured with a surface electrometer (SV-77A, manufactured by NIPPON STATIC CO., LTD.) that had previously been zero-point adjusted, to confirm that it was statically eliminated (within −1 to +1 kV). Next, the sample surface of the petri dish loaded with the sample was scraped back and forth 20 times with a stainless steel metal plate for 10 seconds to charge the sample surface. After that, the petri dish loaded with the charged sample was placed on a metal plate (30 cm×30 cm) connected with a ground wire. The surface potential of the sample was measured over time for 20 minutes with the above surface electrometer. The triboelectrification properties were evaluated from the initial surface potential. In addition, the retention rate was calculated from the surface potential after 20 minutes and the initial surface potential to evaluate charge attenuation properties. Note that the test was conducted in an electrostatic measurement chamber (Tabai ESPEC CORP.) set to 25° C. and 50% RH, and the surface potential measurement was conducted at a distance of 1 cm from the sample surface.

MIC [1]: 5 µg/mL (≈ 19.8 µM) | MIC [2]: 5 µg/mL (≈ 19.8 µM) | Karl Fischer moisture content [4]: 0.1 wt % | Electrification voltage ([5]; 0 minutes after charging, listed as Anhydrate crystal): −5.42 kv | Electrification voltage ([5]; 20 minutes after charging, listed as Anhydrate crystal): −5.39 kv | Decrease of potential retention rate ([5]; at 20 minutes later): almost no change | Retention rate ([5]; surface potential after 20 minutes vs initial, listed as Anhydrate crystal): 99.4%
SMILES: Cc1ccc(-c2nc(C#N)[nH]c2Cl)cc1Cl [Anhydrous crystal, 5-chloro-4-(3-chloro-4-methylphenyl)-1H-imidazole-2-carbonitrile]
MFC ([3]; treatment time 1 hour): 50 µg/mL (≈ 198 µM) | MFC ([3]; treatment time 48 hours): 10 µg/mL (≈ 39.7 µM) | MFC ([3]; treatment time 72 hours): 5 µg/mL (≈ 19.8 µM)
